Data reported in EP3358006A1, “METHOD AND MEDIUM FOR CULTIVATING PRIMARY CELLS IN VITRO” (Mares Ltd., priority 2017, dated 2018).
Read-outs that look alike come from different tables or passages of the source.

Columns and labels:
Format in all cases: cell-based, human
hMSCs [1] = experiment: Substrate oxidation in 24-well plates (14CO2 production from 14C-labelled substrates); details: for increase in substrate-oxidation rate between passage 2 and passage 5: normoxic-cultured cells (20% O2); for oxidation rate relative to glucose (fold higher): normoxic-cultured cells, 10mM acetoacetate vs 5.5mM glucose
Description: (§1) Cryopreserved cells were thawed, washed with growth medium and seeded at a density of 1 X 10^6 cells per 225cm2 with Dulbecco's Modified Eagle's medium (DMEM) containing 2mM ultra-glutamine, 1g/l glucose, 50µg/ml gentamycin and 10% FBS. Where 3-hydroxybutyrate (3-HB) was included in the growth medium, the concentration was 5mM throughout. Cells were passaged at about 80% confluence. Cells for measurements of glycolysis or oxidation were seeded into 24-well plates at a density of 1 x 10^4 cells per well and used at about 90% confluence. Cells were maintained in either normoxic culture with 20% O2 tension or hypoxic culture with 5% O2 tension in an oxygen-tension controlled incubator. Previous workers have identified 5% O2 as being a physiologically significant level of O2 with respect to in vivo conditions for hMSCs, representing hypoxia (Pattappa et al., 2011).
Cells were incubated for 90 minutes in the presence of a single radiolabelled substrate (with addition of unlabelled substrates where indicated) in DMEM (containing no pyruvate, glucose or glutamine) in a total volume of 0.5 mls. The concentrations of single substrates were: 5.5mM glucose (considered similar to median human blood glucose concentration); 2mM pyruvate (considered higher than endogenous pyruvate concentration from glucose metabolism and sufficient to stimulate activity of pyruvate dehydrogenase plus pyruvate carboxylase); 1mM glutamine (considered similar to human blood glutamine concentrations); 10mM acetoacetate (considered similar to intracellular acetoacetate concentrations produced from maximal blood ketone body concentrations). In addition, substrates incorporated radiolabels as follows: glucose: ^21 MBq/mmol D-U-^14C-glucose; pyruvate: 0.35MBq/mmol 1-^14C-pyruvate; acetoacetate: 0.185MBq/mmol 3-^14C-acetoacetate; glutamine: 1.2 MBq/mmol U-^14C-glutamine. Evolved ^14CO2 was trapped and measured by the method of Collins et al. (1998), except that, after addition of perchloric acid to the wells, plates were gently agitated for 60 minutes to release dissolved ^14CO2. Filter papers containing trapped ^14CO2 were counted in Ecoscint using a Tri-Carb 2800TR Liquid Scintillation Analyser. […] Rates of ATP-production from individual substrates were calculated on the basis of mol/mol production as follows: glucose: 31; glutamine: 20; pyruvate: 12.5; acetoacetate: 20. For calculations of ATP-production from acetoacetate plus pyruvate, separate incubations were performed with ^14C-acetoacetate in the presence of unlabelled pyruvate and with ^14C-pyruvate in the presence of unlabelled acetoacetate. Rates of ATP-production from the labelled substrate were calculated for each condition and the results summed.

hMSCs [2] = experiment: Calculated rates of ATP-production from substrate oxidation and glycolysis; details: full oxidation assumed; passage 2, normoxic-cultured cells
Description: Cells were incubated for 90 minutes in the presence of a single radiolabelled substrate (with addition of unlabelled substrates where indicated) in DMEM (containing no pyruvate, glucose or glutamine) in a total volume of 0.5 mls. […] Evolved ^14CO2 was trapped and measured by the method of Collins et al. (1998), except that, after addition of perchloric acid to the wells, plates were gently agitated for 60 minutes to release dissolved ^14CO2. Filter papers containing trapped ^14CO2 were counted in Ecoscint using a Tri-Carb 2800TR Liquid Scintillation Analyser. […] Rates of ATP-production from individual substrates were calculated on the basis of mol/mol production as follows: glucose: 31; glutamine: 20; pyruvate: 12.5; acetoacetate: 20. […] Rates of ATP-production from the labelled substrate were calculated for each condition and the results summed.
ATP-yields were calculated from the following values, as follows: from glycolysis of glucose, it is assumed that 2 moles ATP will be produced per mole glucose glycolysed. […]

hMSCs [3] = experiment: cells; details: for ROS generated per mole of substrate oxidised: 90 minutes incubation with 5.5mM glucose or 10mM acetoacetate, normoxic-cultured cells, passage 5; for fold induction at 20 µM: Homo sapiens, 24 h, 24h pre-incubation with 20µM genipin, passage 5, normoxic
Description: Cells were incubated under appropriate conditions in 24-well plates in a total volume of 0.2ml for 90 minutes. At 90 minutes, ROS were assayed using an Oxiselect Amplex Red kit from Cell Biolabs, Inc., according to the manufacturer's instructions. Where genipin was used, cells were pre-incubated for 24 hours with 20 µM genipin.

hMSCs [4] = experiment: Glycolytic rate in 24-well plates (3H2O production from 5-3H-glucose); details: p5 vs p2
Description: as §1
Glycolysis was measured as the production of ^3H2O from 5-^3H-glucose, which occurs during the step catalysed by enolase. Cells were incubated with 5.5mM glucose containing 17 MBq/mmol 5-^3H-glucose in DMEM without pyruvate, glutamine or glucose for 90 minutes in a total volume of 0.5mls. […] Washing with 2 column volumes of water eluted the ^3H2O which was counted for radioactivity (Tri-Carb 2800TR Liquid Scintillation Analyser).

hMSCs [5] = experiment: Adipocyte differentiation, fat accumulation by oil red O staining; details: for Absorbance of eluate at 500nm, Adipocyte-differentiated cells: 18 days; for Absorbance of eluate at 500nm, Control cells: no differentiation protocol
Description: (§2) Cells at passage 6 were seeded at a density of 2x10^5 (adipogenesis and chondrogenesis) or 3x10^4 (osteogenesis) into wells of a 6 well tissue culture plate. Kits for differentiation along adipogenic, chondrocytic and osteocytic lineages were obtained from Lonza and accompanying protocols followed. Early stage characteristics of differentiation were then assessed. Adipocytes were assayed for fat accumulation after 18 days from the onset of the differentiation protocol. Cells were fixed by incubating for 10 minutes in 10% formalin, followed by 60 minutes in fresh 10% formalin and washing with 60% isopropanol. 5mM Oil red O in 60% isopropanol (filtered), 1ml per well, was added to dry wells and left for 10 minutes before washing four times with water. Oil red O was eluted with 1ml 100% isopropanol per well and the optical density measured at 500nm. Chondrocytes were assayed for collagen accumulation (after 21 days from the onset of the differentiation protocol) using Sirius red/fast green collagen staining kit purchased from Amsbio. Osteocytes were assayed for calcium accumulation (21 days after the onset of the differentiation protocol) by the method of Jager et al, 2005. In each case, values were compared with those of control cells which had been cultured under normal growth conditions without being exposed to differentiation protocols.
Cells were inoculated at a density of 2x10^5 cells/well into 6 well plates and the adipocyte differentiation protocol followed (refer to Experimental Procedures for full protocol). After 18 days, medium was removed from wells and cells stained with oil red O. The dye was eluted from the cells and the absorbance of the eluate read at 500 nm. B: Absorbance at 577nm for cells treated with cresopthalein to measure Ca2+ accumulation.

hMSCs [6] = experiment: Osteocyte differentiation, Ca2+ accumulation by cresopthalein; details: for Absorbance at 577nm, Osteocyte-differentiated cells: 21 days; for Absorbance at 577nm, Control cells: no differentiation protocol
Description: as §2
Cells were inoculated at a density of 3x10^4 cells/well into 6 well plates and the osteocyte differentiation protocol followed (refer to Experimental Procedures for full protocol). After 21 days, cells were incubated with 0.6M HCl for 24 hours before calcium per well was measured by complexing with cresopthalein and measuring absorbance at 577nm. C: Absorbance at 540nm for cells treated with Sirius red/fast green dye to measure collagen accumulation.

hMSCs [7] = experiment: Chondrocyte differentiation, collagen accumulation by Sirius red/fast green staining; details: for activation at 5000 µM: Homo sapiens, Chondrocyte, 504 h, read-out: % increase over controls (chondrocyte differentiation); for Absorbance at 540nm, Chondrocyte-differentiated cells: 21 days; for Absorbance at 540nm, Control cells: no differentiation protocol
Description: as §2
Cells were inoculated at a density of 2x10^5 cells/well into 6 well plates and the chondrocyte-differentiation protocol followed (refer to Experimental Procedures for full protocol). After 21 days, cells were fixed with Kahle fixative and stained with Sirius dye. Dye was extracted and the absorbance read at 540nm. n=3 ** p<0.004; *** p<0.0001

[8] = normoxic cells cultured with 5mM 3-HB from passages 1 to 5

## NC(=O)CC[C@H](N)C(=O)O [glutamine, reference compound]
hMSCs [1]
  increase in substrate-oxidation rate between passage 2 and passage 5: not significantly different
hMSCs [2]
  ATP produced compared with acetoacetate alone (times less): 33 times less

## OC[C@H]1OC(O)[C@H](O)[C@@H](O)[C@@H]1O (stereo partly drawn) [glucose, reference compound]
hMSCs [1]; 10mM acetoacetate plus unlabelled 5.5mM glucose, passage 2, normoxic-cultured cells
  reduction of rate of acetoacetate-oxidation by added substrate: more than 3 fold
hMSCs [1]
  increase in substrate-oxidation rate between passage 2 and passage 5: 2 fold
hMSCs [2]
  ATP produced compared with acetoacetate alone (times less): 16 times less
hMSCs [3]
  ROS generated per mole of substrate oxidised: 0.076 moles of ROS

## CC(O)CC(=O)O (stereo not drawn) [3-HB, 3-hydroxybutyrate]
hMSCs [1]; [8]
  increase in glucose oxidation rate at passage 5: 7.5 fold
  reduction of acetoacetate oxidation rate at passage 5: 1.3 fold
hMSCs [4]; cells cultured under hypoxia with 5mM 3-HB
  decrease in glycolytic rates by passage 5: 1.5 fold
hMSCs [4]; normoxic cells cultured with 5mM 3-HB
  increase in glycolytic rate at p5: 1.4 fold
hMSCs [5]; Hypoxia + 5mM 3-HB
  % increase over control (adipocyte differentiation): 27%
  Absorbance of eluate at 500nm, Adipocyte-differentiated cells: *** 0.727 ± 0.001
  Absorbance of eluate at 500nm, Control cells: 0.570 ± 0.001
hMSCs [5]; Normoxia + 5mM 3-HB
  % increase over control (adipocyte differentiation): 34%
  Absorbance of eluate at 500nm, Adipocyte-differentiated cells: *** 0.698 ±0.005
  Absorbance of eluate at 500nm, Control cells: 0.520 ± 0.006
hMSCs [6]; Hypoxia + 5mM 3-HB
  % increase over control (osteocyte differentiation): 36%
  Absorbance at 577nm, Osteocyte-differentiated cells: *** 0.495 ± 0.007
  Absorbance at 577nm, Control cells: 0.363 ± 0.003
hMSCs [6]; Normoxia + 5mM 3-HB
  % increase over control (osteocyte differentiation): 21%
  Absorbance at 577nm, Osteocyte-differentiated cells: *** 0.375 ± 0.003
  Absorbance at 577nm, Control cells: 0.310 ± 0.001
hMSCs [7]; Hypoxia + 5mM 3-HB
  activation at 5000 µM: 45%
  Absorbance at 540nm, Chondrocyte-differentiated cells: ** 0.806 ± 0.024
  Absorbance at 540nm, Control cells: 0.556 ± 0.008
hMSCs [7]; Normoxia + 5mM 3-HB
  activation at 5000 µM: 178%
  Absorbance at 540nm, Chondrocyte-differentiated cells: *** 0.887 ± 0.020
  Absorbance at 540nm, Control cells: 0.319 ± 0.004

## COC(=O)C1=CO[C@@H](O)[C@@H]2C(CO)=CC[C@H]12 [genipin]
hMSCs [3]; read-out: increase in ROS-production, acetoacetate substrate (10mM)
  fold induction at 20 µM: 2
hMSCs [3]; read-out: increase in ROS-production, glucose substrate (5.5mM)
  fold induction at 20 µM: 1.6

## CC(=O)CC(=O)O [acetoacetate]
hMSCs [1]
  increase in substrate-oxidation rate between passage 2 and passage 5: 3.5 fold
hMSCs [1]; passage 2
  oxidation rate relative to glucose (fold higher): 25 fold
hMSCs [1]; passage 5
  oxidation rate relative to glucose (fold higher): 42 fold
hMSCs [3]
  ROS generated per mole of substrate oxidised: 0.0017 moles of ROS
hMSCs [3]; acetoacetate lower than glucose
  difference in ROS generation per mole substrate oxidised, compared with glucose: 4.5 fold

## O=C(O)CC(O)C(=O)O (stereo not drawn) [malate, reference compound]
hMSCs [1]; data not shown
  effect of added substrate on rates of pyruvate oxidation: no significant effect
